# Results published in patent publication US20240115654A1, “INTRAVENOUS ADMINISTRATION OF ENGINEERED ANTIMICROBIAL AMPHIPHILIC PEPTIDES” (priority 2021, published 2024).
# “And” between values parts separate entries of the source, which are not always exact repeats. Equal values may be shown once. Peptide text beside a SMILES is read from it.
# Description: All subjects who met eligibility criteria were confined to the clinical research unit from […] through Day 3. At admission, physical examination, vital signs, 12 lead ECG and weight were obtained, medical and medication history were updated if necessary, safety blood tests (hematology and chemistry), urinalysis, urine drug screen and an alcohol breath test were repeated and a urine pregnancy test was done for women of childbearing potential.
# At each dose level, there were 2 sentinel subjects, (1 active, 1 placebo), who were dosed at least 48 hours in advance of the other subjects in their respective group. Following review of safety data, including physical examination, vital signs, and review of adverse events from the first 2 subjects, enrolment in the cohort continued.
# A 12-lead ECG was performed on Day 1, within 60 minutes of infusion start (in triplicate), mid-way through the infusion, at the completion of the infusion, 30 minutes after completion of the infusion and at various timepoints following the end of the infusion.
# Vital signs were recorded within 60 minutes pre-dose, at the mid-point of the infusion and post dose vitals were assessed at completion of the infusion, 0.5, 1, 2, 3, 4, 6, 9, 12, 24 and 48 hours post dose, after at least 3 minutes of rest in supine position.
# Subjects returned to the study center 7 days after dosing, for the termination visit. A full physical examination, vital signs and weight were obtained, concomitant medications were updated if necessary, safety blood specimens (haematology and chemistry, PT and aPTT) and urine were collected for urinalysis and urine drug screening. A serum pregnancy test was done for women of childbearing potential and a 12-lead ECG was performed.
# In this study dose limiting toxicity (DLT) was defined as any drug related ≥Grade 3 AEs occurring despite optimal therapeutic interventions (which included but were not limited to allergic/hypersensitivity reactions, dermatological reactions/infusion site reactions, haematological toxicities such as neutropenia, thrombocytopenia and anaemia and clinical chemistry abnormalities) experienced up to Day 7 (Termination Visit).
# (§1) All subjects who received any amount of study drug were included in the safety analysis (Safety population).
# The study was a double blinded, randomized, placebo-controlled study. The placebo administered was 0.9% sodium chloride.
# On Day 1 (day of dosing), subjects were randomly assigned either peptide IV or Placebo IV. At each dose level, there were 2 sentinel subjects, (1 active, 1 placebo), who were dosed at least 48 hours in advance of the other subjects in their respective group. Following review of safety data, including physical examination, vital signs, and review of adverse events from the first 2 subjects, enrolment in the cohort continued. All subjects who met eligibility criteria were confined to the clinical research unit from Day −2 through Day 3. At admission, physical examination, vital signs, 12 lead ECG and weight were obtained, medical and medication history were updated if necessary, safety blood tests (hematology and chemistry), urinalysis, urine drug screen and an alcohol breath test were repeated and a urine pregnancy test was done for women of childbearing potential.
# as §1
smiles,measurement,setting,value
CC(C)[C@H](NC(=O)[C@H](Cc1c[nH]c2ccccc12)NC(=O)[C@H](CCCNC(=N)N)NC(=O)[C@H](CCCNC(=N)N)NC(=O)[C@@H](NC(=O)[C@@H](NC(=O)[C@H](CCCNC(=N)N)NC(=O)[C@@H](NC(=O)[C@@H](NC(=O)[C@H](CCCNC(=N)N)NC(=O)[C@H](CCCNC(=N)N)NC(=O)[C@H](Cc1c[nH]c2ccccc12)NC(=O)[C@@H](NC(=O)[C@H](CCCNC(=N)N)NC(=O)[C@H](CCCNC(=N)N)NC(=O)[C@@H](NC(=O)[C@H](CCCNC(=N)N)NC(=O)[C@H](CCCNC(=N)N)NC(=O)[C@@H](NC(=O)[C@H](Cc1c[nH]c2ccccc12)NC(=O)[C@H](CCCNC(=N)N)NC(=O)[C@@H](N)CCCNC(=N)N)C(C)C)C(C)C)C(C)C)C(C)C)C(C)C)C(C)C)C(C)C)C(=O)N[C@@H](CCCNC(=N)N)C(=O)N[C@@H](CCCNC(=N)N)C(N)=O [SEQ ID NO: 1] (H-RRWVRRVRRVWRRVVRVVRRWVRR-NH2),"Related TEAE Co[?], n participants",Pooled SEQ ID NO: 1 (N = 29),0
same,"Related TEAE F[?], n participants",Pooled SEQ ID NO: 1 (N = 29),0
same,"Related TEAE Nervous system disorders, n participants",Pooled SEQ ID NO: 1 (N = 29),0
same,"Related TEAE O[?] (r38, respiratory SOC), n participants",Pooled SEQ ID NO: 1 (N = 29),0
same,"Related TEAE Pain in extremity, n participants",Pooled SEQ ID NO: 1 (N = 29),0
same,"Related TEAE Respiratory, thoracic and m[?] disorders, n participants",Pooled SEQ ID NO: 1 (N = 29),0
same,"Related TEAE T[?], n participants",Pooled SEQ ID NO: 1 (N = 29),0
same,"Related TEAE [?] headache, n participants",Pooled SEQ ID NO: 1 (N = 29),0
same,"Related TEAE, occurrences (M)",Pooled SEQ ID NO: 1 (N = 29),12
same,"TEAE A[?] (r19, skin SOC), n participants",Pooled SEQ ID NO: 1 (N = 29),0
same,"TEAE Blood and lymphatic system disorders, n participants",Pooled SEQ ID NO: 1 (N = 29),0
same,"TEAE Constipation, n participants",Pooled SEQ ID NO: 1 (N = 29),0
same,"TEAE D[?] contact, M occurrences",Pooled SEQ ID NO: 1 (N = 29),3
same,"TEAE D[?] contact, n participants",Pooled SEQ ID NO: 1 (N = 29),2
same,"TEAE Gastrointestinal disorders, M occurrences",Pooled SEQ ID NO: 1 (N = 29),3
same,"TEAE Gastrointestinal disorders, n participants",Pooled SEQ ID NO: 1 (N = 29),2
same,"TEAE General disorders and administration site conditions, M occurrences",Pooled SEQ ID NO: 1 (N = 29),8
same,"TEAE General disorders and administration site conditions, n participants",Pooled SEQ ID NO: 1 (N = 29),7
same,"TEAE Injury, [?] and procedural complications, % participants",Pooled SEQ ID NO: 1 (N = 29),48.3%
same,"TEAE Injury, [?] and procedural complications, n participants",Pooled SEQ ID NO: 1 (N = 29),14
same,"TEAE O[?] (r37, vascular SOC), M occurrences",Pooled SEQ ID NO: 1 (N = 29),2
same,"TEAE O[?] (r37, vascular SOC), n participants",Pooled SEQ ID NO: 1 (N = 29),1
same,"TEAE O[?] pain, n participants",Pooled SEQ ID NO: 1 (N = 29),0
same,"TEAE Related (to study drug), M occurrences",Pooled SEQ ID NO: 1 (N = 29),12
same,"TEAE Related (to study drug), n participants",Pooled SEQ ID NO: 1 (N = 29),2
same,"TEAE Respiratory, thoracic and [?] disorders, n participants",Pooled SEQ ID NO: 1 (N = 29),0
same,"TEAE Severity Grade 1, participants %",Pooled SEQ ID NO: 1 (N = 29),82.8%
same,"TEAE Severity Grade 1, participants n",Pooled SEQ ID NO: 1 (N = 29),24
same,"TEAE Skin reaction, M occurrences",Pooled SEQ ID NO: 1 (N = 29),3
same,"TEAE Skin reaction, n participants",Pooled SEQ ID NO: 1 (N = 29),2
same,"TEAE V[?] (r24, general SOC), M occurrences",Pooled SEQ ID NO: 1 (N = 29),4
same,"TEAE V[?] (r24, general SOC), n participants",Pooled SEQ ID NO: 1 (N = 29),3
same,"TEAE Vascular disorders, M occurrences",Pooled SEQ ID NO: 1 (N = 29),5
same,"TEAE Vascular disorders, n participants",Pooled SEQ ID NO: 1 (N = 29),3
same,"TEAE [?] (r26, general SOC), n participants",Pooled SEQ ID NO: 1 (N = 29),0
same,"TEAE [?] (r39, vascular SOC), n participants",Pooled SEQ ID NO: 1 (N = 29),0
same,"TEAE [?] (r44, nervous SOC), n participants",Pooled SEQ ID NO: 1 (N = 29),0
same,"TEAE [?] (r52, blood SOC), n participants",Pooled SEQ ID NO: 1 (N = 29),0
same,"TEAE, occurrences (M)",Pooled SEQ ID NO: 1 (N = 29),52
same,"Participants With At Least 1 TEAE, n (%)",Pooled SEQ ID NO: 1 (N = 35),31 (88.6%)
same,"Participants With At Least 1 TEAE, occurrences m",Pooled SEQ ID NO: 1 (N = 35),71 and 72
same,"Participants With At Least 1 Treatment-Related TEAE, n (%)",Pooled SEQ ID NO: 1 (N = 35),13 (37.1%)
same,"Participants With At Least 1 Treatment-Related TEAE, occurrences m",Pooled SEQ ID NO: 1 (N = 35),23
same,"TEAE by system organ class: Blood and Lymphatic System Disorders, participants n (%)",Pooled SEQ ID NO: 1 (N = 35),0
same,"TEAE by system organ class: Gastrointestinal Disorders, occurrences m",Pooled SEQ ID NO: 1 (N = 35),4
same,"TEAE by system organ class: Gastrointestinal Disorders, participants n (%)",Pooled SEQ ID NO: 1 (N = 35),3 (8.6%)
same,"TEAE by system organ class: General Disorders and Administration Site Conditions, occurrences m",Pooled SEQ ID NO: 1 (N = 35),17
same,"TEAE by system organ class: General Disorders and Administration Site Conditions, participants n (%)",Pooled SEQ ID NO: 1 (N = 35),13 (37.1%)
same,"TEAE by system organ class: Infections and Infestations, occurrences m",Pooled SEQ ID NO: 1 (N = 35),1
same,"TEAE by system organ class: Infections and Infestations, participants n (%)",Pooled SEQ ID NO: 1 (N = 35),1 (2.9%)
same,"TEAE by system organ class: Injury, Poisoning, and Procedural Complications, occurrences m",Pooled SEQ ID NO: 1 (N = 35),24
same,"TEAE by system organ class: Injury, Poisoning, and Procedural Complications, participants n (%)",Pooled SEQ ID NO: 1 (N = 35),18
same,"TEAE by system organ class: Musculoskeletal and Connective Tissue Disorders, occurrences m",Pooled SEQ ID NO: 1 (N = 35),6
same,"TEAE by system organ class: Musculoskeletal and Connective Tissue Disorders, participants n (%)",Pooled SEQ ID NO: 1 (N = 35),6 (17.1%)
same,"TEAE by system organ class: Nervous System Disorders, occurrences m",Pooled SEQ ID NO: 1 (N = 35),6
same,"TEAE by system organ class: Nervous System Disorders, participants n (%)",Pooled SEQ ID NO: 1 (N = 35),6 (17.1%)
same,"TEAE by system organ class: Respiratory, Thoracic, and Mediastinal disorders, participants n (%)",Pooled SEQ ID NO: 1 (N = 35),0
same,"TEAE by system organ class: Skin and Subcutaneous Tissue Disorders, occurrences m",Pooled SEQ ID NO: 1 (N = 35),9
same,"TEAE by system organ class: Skin and Subcutaneous Tissue Disorders, participants n (%)",Pooled SEQ ID NO: 1 (N = 35),7 (20.0%)
same,"TEAE by system organ class: Vascular Disorders, occurrences m",Pooled SEQ ID NO: 1 (N = 35),5
same,"TEAE by system organ class: Vascular Disorders, participants n (%)",Pooled SEQ ID NO: 1 (N = 35),3 (8.6%)
same,"TEAE severity Grade 1, occurrences m",Pooled SEQ ID NO: 1 (N = 35),64
same,"TEAE severity Grade 1, participants n (%)",Pooled SEQ ID NO: 1 (N = 35),30 (85.7%)
same,"TEAE severity Grade 2, occurrences m",Pooled SEQ ID NO: 1 (N = 35),8
same,"TEAE severity Grade 2, participants n (%)",Pooled SEQ ID NO: 1 (N = 35),5 (14.3%)
same,"TEAE severity Grade 3, participants n (%)",Pooled SEQ ID NO: 1 (N = 35),0
same,"TEAE severity Grade 4, participants n (%)",Pooled SEQ ID NO: 1 (N = 35),0
